From patent US12589122B2, “Methods and compositions for treating infectious, autoimmune, and allergic disease” (The University of Chicago, priority 2018, dated 2026) come the findings set out here.

“Also recorded” adds a separate entry of the source.

Assay [1] concerns BLG plus CT sensitized mice, anaphylactic response to BLG challenge. It is filed as in vivo, C3H/HeN mice.
A further assay has as its system BLG-specific IgE. The assay is described as follows: Serum BLG-specific IgE ELISA after challenge. The settings on record: A. caccae monocolonized vs CMA colonized mice. The class given is in vivo, mouse. From the text:
(§1) Food allergen sensitization and challenge. Protocols were adapted from reference 7. All mice were weaned onto a plant-based mouse chow (Purina Lab Diet® 5K67) at 3 weeks of age. GF mice received autoclaved sterile water. For mice colonized with feces from infant donors, or monocolonized with A. caccae, the drinking water was replaced by formula four hours prior to colonization. Mice colonized with healthy feces or A. caccae received Enfamil®; CMA colonized mice received Nutramigen® (both from Mead Johnson). On day 0, one week post weaning (GF) or colonization (healthy/A. caccae/CMA), all mice were fasted for 4 hours and then given a gavage of 200 mM sodium bicarbonate. 30 minutes later, mice were given 20 mg BLG (Sigma) plus 10 μg CT (List Biologicals). This protocol was repeated weekly for 5 weeks. For formula-fed mice, formula was replaced by sterile water for the week after the last sensitization. Prior to challenge on day 42, mice were fasted for 4 hours and given sodium bicarbonate by gavage. Two doses of 100 mg BLG each were then administered via intragastric gavage 30 minutes apart. Core body temperature was measured in a blinded fashion prior to allergen challenge and every 5 minutes after the first challenge until at least 30 minutes after the second challenge using a rectal probe (PhysiTemp). Serum was collected 1 hour after the second challenge to measure mMCPT-1 levels.
On the technique in general: ELISA stands for enzyme-linked immunosorbent assay.

The next assay deals with BLG-specific IgG1. The assay is described as follows: Serum BLG-specific IgG1 ELISA after challenge. The class given is in vivo, mouse. As to conditions: A. caccae monocolonized vs CMA colonized mice.
Source text: as §1

In a further assay the test system is mMCPT-1. Put plainly: Serum mMCPT-1 ELISA 1 hour after second challenge. It is filed as in vivo, mouse. The settings on record: A. caccae monocolonized compared to CMA colonized mice.
Source text: as §1

Another assay concerns IL-13. Put plainly: Splenocyte cytokine ELISA after BLG stimulation (IL-13). The class given is cell-based, mouse. As to conditions: sacrificed 24 h post challenge, stimulated 72 h with BLG; A. caccae vs CMA colonized. As to the method:
(§2) For cytokine analysis spleens were harvested 24 h post challenge from A. caccae or CMA colonized mice sensitized with BLG+CT for 5 weeks. Splenocytes were stimulated at a concentration of 2×10^6 cells/ml at 37° C., 10% CO2 with 10 mg/ml BLG (Sigma) in cDMEM (with 4% FCS (HyClone), 10 mM HEPES (Gibco), 100 U/ml Penicillin/Streptomycin (Gibco) and 55 μM 2-mercaptoethanol (Gibco). Cytokine concentrations in 72 hr culture supernatants were determined by ELISA for IL-13 and IL-4 (both from Invitrogen).

For the next assay, the system named is IL-4. The assay is described as follows: Splenocyte cytokine ELISA after BLG stimulation (IL-4). The class given is cell-based, mouse. The settings on record: sacrificed 24 h post challenge, stimulated 72 h with BLG; A. caccae vs CMA colonized. As to the method:
as §2

In assay [2] the test system is Ror2, Fbp1, Tgfbr3, Acot12 and Me1 in ileal IECs. The assay is described as follows: qPCR gene expression in ileal IECs. It is filed as in vivo, mouse. As to conditions: A. caccae monocolonized compared to GF or CMA-colonized mice. As to the method:
Epithelial cell isolation. As in sensitization experiments, mice were weaned at 3 weeks of age and placed on infant formula prior to colonization. Seven days after colonization, mice were euthanized and ileum was removed. For IEC isolation, tissues were cleaned and inverted as described in ref (43). IECs were collected by inflating inverted tissue in Cell Recovery Solution (Corning) every 5 minutes for 30 minutes. IEC samples were lysed in TRIZol (ThermoFisher) and RNA was extracted with PureLink RNA Mini Kit (Ambion) plus on-column DNAse treatment (PureLink DNAse Set, Ambion).
qPCR. Gene expression was measured by qPCR as described in reference 7. In brief, cDNA was prepared from RNA using the iScript cDNA Synthesis kit (BioRad). Gene expression was measured with PowerUp SYBR green master mix (Applied Biosystems) according to the manufacturer's instructions. Primers are listed in Supplementary Table 7 (20, 50-54). Expression of genes of interest was normalized to Hprt. Relative expression was measured using ΔΔCt centered around the geometric mean; GF mice were used as a reference.

The subject of assay [3] is A. caccae_lah. The assay is described as follows: In vitro fermentation in PY broth, monoculture growth (OD600). The class given is cell-based, Anaerostipes caccae. The settings on record: 48 h; for Growth of A. caccae_lah / Growth of A. caccae_lah (OD600): monoculture; for Growth of A. caccae_lah: PY broth supplemented with 33 mM acetate and/or 40 mM lactate; for Growth of A. caccae_lah (OD600): PY broth supplemented with 10 mg/ml carbohydrates. As to the method:
(§3) This method of preculture is used for all future in vitro fermentation experiments. Then 10 μl of preculture was transferred into 7 mL minimal peptone yeast (PY) broth alone or supplemented with 10 mg/ml of glucose, sucrose, lactose, cellobiose, or potato starch. All of these variations of PY were pre-reduced anaerobically prepared by Anaerobe Systems. Growth and butyrate production were measured after 48 h. […] Butyrate in solution is quantified by HPLC-UV-Vis as described in reference 61 and 62. […] These simple sugars are similar to those found in infant formula. […] These are the same formulas consumed by the healthy (Enfamil®) and CMA (Nutramigen®) infant donors and are also consumed by all mice colonized with these respective microbiomes. […] All groups were analyzed by one way ANOVA. *P<0.05, **P<0.01, ***P<0.001, ****P<0.0001 versus PY.
(§4) Other groups have shown that primary degraders, namely Bacteroides species, break down complex fibers and produce metabolites lactate and acetate which Clostridia species can then consume to produce butyrate (59). […] Growth and butyrate production were measured after 48 h. […] All groups were analyzed by one way ANOVA. *P<0.05, **P<0.01, ***P<0.001, ****P<0.0001 versus PY alone.

The test system of assay [4] is A. caccae_lah. Put plainly: In vitro fermentation in PY broth, monoculture butyrate production (HPLC-UV-Vis). It is filed as cell-based, Anaerostipes caccae. The settings on record: for lactate or acetate in the media at 48 h: A. caccae_lah monoculture, Nutramigen plus 40 mM lactate+33 mM acetate; for butyrate production by A. caccae_lah: monoculture, PY broth supplemented with 10 mg/ml carbohydrates, 48 h. As for the experimental part:
as §3, §4

Assay [5] has as its system A. caccae_lah. The assay is described as follows: Antibiotic susceptibility by growth inhibition around antibiotic discs. It is filed as cell-based, Anaerostipes caccae. As to conditions: discs 10 μg ampicillin, 30 μg tetracycline; BHI agar, 37° C. anaerobic, six days. As for the experimental part:
Plates are incubated at 37° C. in anaerobic conditions for six days.

For the compound Anaerostipes caccae [A. caccae], in assay [1] (A. caccae monocolonized compared to CMA colonized mice), the “changes in core body temperature after BLG challenge” value is given as “significantly reduced”. Further, the “anaphylactic response to BLG challenge” value in assay [1] (BLG plus CT sensitized A. caccae monocolonized mice) is given as “protected against an anaphylactic response to BLG challenge; also recorded: protects against an allergic response to food”. Also, in the assay on BLG-specific IgE, the “serum BLG-specific IgE” value is “reduced”. The “serum BLG-specific IgG1” value in the assay with BLG-specific IgG1 was “reduced”. Besides, in the assay with mMCPT-1, the “serum concentrations of mMCPT-1” value is recorded as “significantly reduced”. Moreover, in the assay with IL-13, the “IL-13 in culture supernatants of splenocytes” value was “reduced”. In the assay with IL-4, the “IL-4 in culture supernatants of splenocytes” value was “reduced”. Besides, in assay [2], the “Fbp1 gene expression in ileal IECs (qPCR)” value is “significantly upregulated” and the “Tgfbr3 gene expression in ileal IECs (qPCR)” value is “significantly upregulated”.

As to `CC(O)C(=O)O` (centres unmarked) [lactate], the “Growth of A. caccae_lah” value in the assay on A. caccae_lah [3] is “significant growth”. For the same compound, in the assay on A. caccae_lah [4], the “lactate or acetate in the media at 48 h” value was “no detectable”.

Take `O=C[C@H](O)[C@@H](O)[C@H](O[C@@H]1O[C@H](CO)[C@@H](O)[C@H](O)[C@H]1O)[C@H](O)CO` [cellobiose]: the “butyrate production by A. caccae_lah” value with A. caccae_lah [4] is “not able to produce significant butyrate”.

With `OC[C@H]1O[C@@](CO)(O[C@H]2O[C@H](CO)[C@@H](O)[C@H](O)[C@H]2O)[C@@H](O)[C@@H]1O` [sucrose], the “Growth of A. caccae_lah (OD600)” value in the assay with A. caccae_lah [3] is recorded as “grew abundantly”. In addition, the “butyrate production by A. caccae_lah” value with A. caccae_lah [4] is recorded as “produced the most butyrate”.

`CC1(C)S[C@@H]2[C@H](NC(=O)[C@H](N)c3ccccc3)C(=O)N2[C@H]1C(=O)O` [ampicillin]: the “antibiotic susceptibility of A. caccae_lah (zone of clearance)” value with A. caccae_lah [5] is on record as “highly susceptible”.

Regarding `OC[C@H]1O[C@@H](O[C@H]2[C@H](O)[C@@H](O)C(O)O[C@@H]2CO)[C@H](O)[C@@H](O)[C@H]1O` (some centres unmarked) [lactose], the “fermentation by A. caccae_lah in monoculture” value in the assay with A. caccae_lah [3] (minimal PY broth supplemented with 10 mg/ml carbohydrates) is on record as “can ferment”. Besides, the “Growth of A. caccae_lah (OD600)” value with A. caccae_lah [3] is recorded as “grew abundantly”. The “butyrate production by A. caccae_lah” value with A. caccae_lah [4] is listed as “produced the most butyrate”.

For the compound `CC(=O)O` [acetate], in the assay on A. caccae_lah [3], the “Growth of A. caccae_lah” value is recorded as “significant growth”. Besides, in the assay with A. caccae_lah [4], the “lactate or acetate in the media at 48 h” value is “no detectable”.
